The values that follow come from patent US20080293777A1, “Weight Loss Treatment” (priority 2007, published 2008).

Where a name gives a salt, the structure may show the parent alone.

The target in data set [1] is T1, PTP-1B (wild type, residues 1-298) (Homo sapiens, UniProt P18031).
T1 construct: PTP-1B (wild type, residues 1-298) was exchanged into DFTN buffer
T1 sequence (P18031 1-298): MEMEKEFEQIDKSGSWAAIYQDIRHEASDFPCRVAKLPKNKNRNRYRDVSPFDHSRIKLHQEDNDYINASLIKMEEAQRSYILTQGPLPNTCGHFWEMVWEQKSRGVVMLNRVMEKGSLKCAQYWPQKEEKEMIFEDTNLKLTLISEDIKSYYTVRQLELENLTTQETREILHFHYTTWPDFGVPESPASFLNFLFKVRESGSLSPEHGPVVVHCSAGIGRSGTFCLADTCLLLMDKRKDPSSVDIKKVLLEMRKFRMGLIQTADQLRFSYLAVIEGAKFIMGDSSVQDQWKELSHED
In words: Mass spectrometry of PTP-1B treated with Compound 1. Format: binding. The settings on record: 1 equivalent of Compound 1 for 15 minutes, FIG. 2. As for the experimental part:
(§1) PTP-1B (wild type, residues 1-298) was exchanged into DFTN buffer (DTT-free, 50 mM Tris, 100 mM NaCl, 1 mM EDTA, pH 7.4) using a NAP-5 column, and the concentration of protein was quantified using the absorbance at 280 nm. Purity of the PTP-1B was evidenced by a single mass peak (mass=34,672 amu in a mass spectrometer).
(§2) To 99 mL solution of 1.0 μM PTP-1B in buffer was added 1 mL of Compound 1 in DMSO […]. After 15 minutes, each Compound 1-treated PTP-1B sample was evaluated by mass spectrometry (QSTAR protein mass spectrometer with Baynesian protein mass deconvolution). Concurrently, two 10 μL aliquots were removed. One aliquot was diluted with 10 μL DFTN buffer while the other aliquot was diluted with 10 μL TN buffer (1 mM DTT, 50 mM Tris, 100 mM NaCl, 1 mM EDTA, pH 7.4). After 15 minutes, the samples were diluted with 90 μL pNPP solution (5.6 mM pNPP in DFTN) and the A405 of the solution was monitored for 5 minutes.

Data set [2] is described as follows: Weight change in leptin-deficient (ob/ob) mice. Format: in vivo. The conditions noted are these: for weight change: PO BID for 7 days, FIG. 3. As for the experimental part: To investigate Compound 1's effect on various metabolic disorders including diabetes and obesity, in vivo studies were conducted in the ob/ob obese mouse model and in the db/db diabetic model. The ob/ob mouse is deficient in the hormone leptin, a 16 kDa protein that is secreted by fat cells and plays a key role in regulating energy intake and energy expenditure, including the regulation of appetite and metabolism. […] Compound 1 was tested in these metabolic disease models along with two anti-diabetic drugs that also affect body weight, metformin hydrochloride and rosiglitazone maleate.
Male BKS.Cg-m+/+Leprdb/J (˜5 weeks of age) and B6.V-Lepob/J mice (˜8 weeks of age) were used for in vivo efficacy studies. Mice were housed 4 per cage and acclimated for 10 days prior to the start of the study. […] Mice were weighed each morning just prior to dosing. Mice were fasted overnight between study day 1 and 2 and blood glucose was measured in the morning of day 2 using a glucometer and blood from a tail nick. Food was returned to the mice ad libitum and the mice were again fasted overnight between study day 3 and 4, 5 and 6, and 7 and 8.

For data set [3] the following is noted: cited from earlier work.
In data set [4] the target is T1, PTP-1B (wild type, residues 1-298). Briefly: PTP-1B activity assay with pNPP, with or without DTT added afterwards. Format: biochemical. The settings on record: FIG. 1. The method, then:
as §1, §2

The nature of data set [5]: Weight change in db/db mice (mutation mapped to leptin receptor). Format: in vivo. The settings on record: FIG. 4. As for the experimental part: To investigate Compound 1's effect on various metabolic disorders including diabetes and obesity, in vivo studies were conducted in the ob/ob obese mouse model and in the db/db diabetic model. The ob/ob mouse is deficient in the hormone leptin, a 16 kDa protein that is secreted by fat cells and plays a key role in regulating energy intake and energy expenditure, including the regulation of appetite and metabolism. Leptin-deficient mice are severely obese and develop diabetes but revert to normal weight upon leptin administration. In the second model, the mice have a genetic mutation mapped to the leptin receptor (db/db) and at the time of the experiment were moderately overweight. Compound 1 was tested in these metabolic disease models along with two anti-diabetic drugs that also affect body weight, metformin hydrochloride and rosiglitazone maleate.
Male BKS.Cg-m+/+Leprdb/J (˜5 weeks of age) and B6.V-Lepob/J mice (˜8 weeks of age) were used for in vivo efficacy studies. Mice were housed 4 per cage and acclimated for 10 days prior to the start of the study. […] Mice were fasted overnight between study day 1 and 2 and blood glucose was measured in the morning of day 2 using a glucometer and blood from a tail nick. […]

As for `O=c1c2ccccc2[se]n1-c1ccccc1` [Compound 1, 2-phenyl-1,2-benzisoselenazol-3(2H)-one], the “covalent modification of PTP-1B (mass spectrum)” value in data set [1] is listed as “covalently modifies”. In data set [2] (20 mg/kg vs 100 mg/kg Compound 1 dosed orally BID), the “difference in weight loss between doses” value is on record as “No significant difference in weight loss”. In addition, the weight change result in data set [2] is on record as “promoted weight loss”. The cell permeability entry in data set [3] (data from clinical trials) was “cell-permeable”. The “bioavailability of the selenium moiety” value in data set [3] (human, in vivo) is “not bioavailable”. In data set [3] (humans, clinical trials), the oral bioavailability result is on record as “orally bioavailable” and the tolerability entry is recorded as “well tolerated”. For the same compound, the toxicity result in data set [3] (up to 500 mg/day oral dose in humans) is on record as “no toxicity was observed”. Also, in data set [4] (0-2 equivalents of Compound 1, 15 minutes), the “relative activity of PTP-1B” value is “inhibits the activity”. The “reversibility of covalent inhibition of PTP-1B” value in data set [4] (upon addition of a reducing agent such as DTT) is on record as “reversible”.

As for `CN(C)C(=N)N=C(N)N` [metformin, metformin hydrochloride, reference compound], the weight change result in data set [2] was “promoted weight loss”.

With `CN(CCOc1ccc(CC2SC(=O)NC2=O)cc1)c1ccccn1.O=C(O)/C=C\C(=O)O` (stereo not shown) [rosiglitazone, rosiglitazone maleate, reference compound], the weight change entry in data set [2] is given as “gained weight”. The “statistical significance of weight gains” value in data set [5] is recorded as “except for the rosiglitazone-treated mice, the weight gains were not statistically significant”.
